8 compounds from PubChem BioAssay (NCI) can be followed below.

Structures are written as SMILES.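 Assay format: 96-well plates, 48-hour exposure. GI50: concentration for 50% inhibition of growth. TGI marks complete inhibition of growth.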

One assay deals with A498 renal. As to the kind of experiment: NCI tumour cell line growth inhibition, 48 h.
`O=C(O)c1cc([N+](=O)[O-])cc2c(=O)c3cnccc3[nH]c12` registered a TGI of more than 100 µM.

On to `CCCCCCCCCCCCCCCCCCOc1ccccc1CC(=O)OCC[N+]1(C)CCCCC1`, for which the GI50 is 2.53 µM and the TGI worked out at 9.71 µM.

In the case of `Nc1ncnc2c1ncn2C=C=CCO`, the TGI was more than 100 µM.

On to `CN1CCc2[nH]c3ccccc3c2C1`, for which the TGI is more than 100 µM.

`C[C@]12C=CC(=O)C=C1CC[C@@H]1[C@@H]2CC[C@]2(C)OC(=O)CC[C@@H]12` came in with a TGI of 496 µM.

In the case of `Nc1ncnc2nc[nH]c12`, the TGI was found to be 11.1 µM.

Compound `CN1CCOC(c2ccc(Cl)cc2)O1` (stereo unspecified) showed a TGI of more than 100 µM.

The compound `CCOc1ccc(NC(=O)C(=O)CC(=O)c2sc(NNC(C)=O)nc2C)cc1` had a TGI of more than 100 µM.

The subject of a further assay is CCRF-CEM leukemia. As to the kind of experiment: NCI tumour cell line growth inhibition, 48 h.
The compound `O=C(O)c1cc([N+](=O)[O-])cc2c(=O)c3cnccc3[nH]c12` gave a TGI of more than 100 µM.

`CCCCCCCCCCCCCCCCCCOc1ccccc1CC(=O)OCC[N+]1(C)CCCCC1`: the GI50 is 1.96 µM and the TGI amounted to 4.63 µM.

Regarding `Nc1ncnc2c1ncn2C=C=CCO`, the TGI is more than 100 µM.

In turn, `CN1CCc2[nH]c3ccccc3c2C1` gave a TGI of more than 100 µM.

Compound `C[C@]12C=CC(=O)C=C1CC[C@@H]1[C@@H]2CC[C@]2(C)OC(=O)CC[C@@H]12` returned a TGI of more than 500 µM.

As for `Nc1ncnc2nc[nH]c12`, the GI50 is 32.4 µM and the TGI is more than 250 µM.

Compound `CN1CCOC(c2ccc(Cl)cc2)O1` (stereo unspecified) had a TGI of more than 100 µM.

For the compound `CCOc1ccc(NC(=O)C(=O)CC(=O)c2sc(NNC(C)=O)nc2C)cc1`, the TGI is more than 100 µM.

The test system of a further assay is COLO 205 colon. As to the kind of experiment: NCI tumour cell line growth inhibition, 48 h.
The compound `O=C(O)c1cc([N+](=O)[O-])cc2c(=O)c3cnccc3[nH]c12` came in with a TGI of more than 100 µM.

`Nc1ncnc2c1ncn2C=C=CCO` returned a TGI of more than 100 µM.

`CN1CCc2[nH]c3ccccc3c2C1` displayed a TGI of more than 100 µM.

Regarding `C[C@]12C=CC(=O)C=C1CC[C@@H]1[C@@H]2CC[C@]2(C)OC(=O)CC[C@@H]12`, the TGI was more than 500 µM.

As for `Nc1ncnc2nc[nH]c12`, the TGI is more than 221 µM.

`CN1CCOC(c2ccc(Cl)cc2)O1` (stereo unspecified): the TGI is more than 100 µM.

Regarding `CCOc1ccc(NC(=O)C(=O)CC(=O)c2sc(NNC(C)=O)nc2C)cc1`, the TGI was more than 100 µM.

The next assay deals with HT29 colon. As to the kind of experiment: NCI tumour cell line growth inhibition, 48 h.
On to `O=C(O)c1cc([N+](=O)[O-])cc2c(=O)c3cnccc3[nH]c12`, for which the TGI is more than 100 µM.

For the compound `CCCCCCCCCCCCCCCCCCOc1ccccc1CC(=O)OCC[N+]1(C)CCCCC1`, the GI50 is 1.61 µM and the TGI was 3.1 µM.

`Nc1ncnc2c1ncn2C=C=CCO` registered a TGI of more than 100 µM.

`CN1CCc2[nH]c3ccccc3c2C1`: the TGI was more than 100 µM.

`C[C@]12C=CC(=O)C=C1CC[C@@H]1[C@@H]2CC[C@]2(C)OC(=O)CC[C@@H]12` yielded a TGI of more than 500 µM.

For the compound `Nc1ncnc2nc[nH]c12`, the TGI is more than 250 µM.

Compound `CN1CCOC(c2ccc(Cl)cc2)O1` (stereo unspecified) gave a TGI of more than 100 µM.

The compound `CCOc1ccc(NC(=O)C(=O)CC(=O)c2sc(NNC(C)=O)nc2C)cc1` had a TGI of more than 100 µM.

A further assay deals with MOLT-4 leukemia. Nature of the assay: NCI tumour cell line growth inhibition, 48 h.
Take `O=C(O)c1cc([N+](=O)[O-])cc2c(=O)c3cnccc3[nH]c12`: the TGI is more than 100 µM.

`CCCCCCCCCCCCCCCCCCOc1ccccc1CC(=O)OCC[N+]1(C)CCCCC1`: the GI50 is 1.73 µM and the TGI amounted to 3.89 µM.

On to `Nc1ncnc2c1ncn2C=C=CCO`, for which the TGI was more than 100 µM.

Turning to `CN1CCc2[nH]c3ccccc3c2C1`, the TGI is more than 100 µM.

Compound `C[C@]12C=CC(=O)C=C1CC[C@@H]1[C@@H]2CC[C@]2(C)OC(=O)CC[C@@H]12` displayed a TGI of more than 500 µM.

As to `Nc1ncnc2nc[nH]c12`, the GI50 is 15.8 µM and the TGI turned out to be 159 µM.

In the case of `CN1CCOC(c2ccc(Cl)cc2)O1` (stereo unspecified), the TGI was more than 100 µM.

Regarding `CCOc1ccc(NC(=O)C(=O)CC(=O)c2sc(NNC(C)=O)nc2C)cc1`, the TGI was more than 100 µM.

In a further assay the test system is NCI-H23 lung. Nature of the assay: NCI tumour cell line growth inhibition, 48 h.
The compound `O=C(O)c1cc([N+](=O)[O-])cc2c(=O)c3cnccc3[nH]c12` yielded a TGI of more than 100 µM.

On to `CCCCCCCCCCCCCCCCCCOc1ccccc1CC(=O)OCC[N+]1(C)CCCCC1`, for which the GI50 is 1.8 µM and the TGI was 4.25 µM.

`Nc1ncnc2c1ncn2C=C=CCO` showed a TGI of more than 100 µM.

`CN1CCc2[nH]c3ccccc3c2C1` yielded a TGI of more than 100 µM.

`C[C@]12C=CC(=O)C=C1CC[C@@H]1[C@@H]2CC[C@]2(C)OC(=O)CC[C@@H]12` returned a TGI of 499 µM.

On to `Nc1ncnc2nc[nH]c12`, for which the TGI is more than 250 µM.

`CN1CCOC(c2ccc(Cl)cc2)O1` (stereo unspecified): the TGI is more than 100 µM.

In turn, `CCOc1ccc(NC(=O)C(=O)CC(=O)c2sc(NNC(C)=O)nc2C)cc1` returned a TGI of more than 100 µM.

Another assay relates to OVCAR-4 ovarian. As to the kind of experiment: NCI tumour cell line growth inhibition, 48 h.
The compound `O=C(O)c1cc([N+](=O)[O-])cc2c(=O)c3cnccc3[nH]c12` showed a TGI of more than 100 µM.

Turning to `CCCCCCCCCCCCCCCCCCOc1ccccc1CC(=O)OCC[N+]1(C)CCCCC1`, the GI50 was 2.81 µM and the TGI is 10.5 µM.

On to `Nc1ncnc2c1ncn2C=C=CCO`, for which the TGI is more than 100 µM.

Consider `CN1CCc2[nH]c3ccccc3c2C1`, for which the TGI was more than 100 µM.

`C[C@]12C=CC(=O)C=C1CC[C@@H]1[C@@H]2CC[C@]2(C)OC(=O)CC[C@@H]12` registered a TGI of more than 500 µM.

In turn, `Nc1ncnc2nc[nH]c12` had a TGI of more than 250 µM.

For the compound `CN1CCOC(c2ccc(Cl)cc2)O1` (stereo unspecified), the TGI was more than 100 µM.

As to `CCOc1ccc(NC(=O)C(=O)CC(=O)c2sc(NNC(C)=O)nc2C)cc1`, the TGI was more than 100 µM.

For another assay, the system named is SK-MEL-2 melanoma. Nature of the assay: NCI tumour cell line growth inhibition, 48 h.
Compound `O=C(O)c1cc([N+](=O)[O-])cc2c(=O)c3cnccc3[nH]c12` showed a TGI of more than 100 µM.

Compound `Nc1ncnc2c1ncn2C=C=CCO` registered a TGI of more than 100 µM.

Regarding `CN1CCc2[nH]c3ccccc3c2C1`, the TGI was more than 100 µM.

In turn, `C[C@]12C=CC(=O)C=C1CC[C@@H]1[C@@H]2CC[C@]2(C)OC(=O)CC[C@@H]12` yielded a TGI of more than 488 µM.

Compound `Nc1ncnc2nc[nH]c12` returned a TGI of more than 250 µM.

In turn, `CN1CCOC(c2ccc(Cl)cc2)O1` (stereo unspecified) showed a TGI of more than 100 µM.

Regarding `CCOc1ccc(NC(=O)C(=O)CC(=O)c2sc(NNC(C)=O)nc2C)cc1`, the TGI is more than 100 µM.

A further assay relates to SK-OV-3 ovarian. Nature of the assay: NCI tumour cell line growth inhibition, 48 h.
`O=C(O)c1cc([N+](=O)[O-])cc2c(=O)c3cnccc3[nH]c12`: the TGI was more than 100 µM.

For `CCCCCCCCCCCCCCCCCCOc1ccccc1CC(=O)OCC[N+]1(C)CCCCC1`, the GI50 was 18.2 µM and the TGI came to 38.2 µM.

Take `CN1CCc2[nH]c3ccccc3c2C1`: the TGI is more than 100 µM.

Compound `C[C@]12C=CC(=O)C=C1CC[C@@H]1[C@@H]2CC[C@]2(C)OC(=O)CC[C@@H]12` yielded a TGI of more than 500 µM.

As to `Nc1ncnc2nc[nH]c12`, the TGI was more than 250 µM.

For the compound `CN1CCOC(c2ccc(Cl)cc2)O1` (stereo unspecified), the TGI is more than 100 µM.

`CCOc1ccc(NC(=O)C(=O)CC(=O)c2sc(NNC(C)=O)nc2C)cc1` came in with a TGI of more than 100 µM.

In the next assay the test system is SN12C renal. Nature of the assay: NCI tumour cell line growth inhibition, 48 h.
`O=C(O)c1cc([N+](=O)[O-])cc2c(=O)c3cnccc3[nH]c12` returned a TGI of more than 100 µM.

For `CCCCCCCCCCCCCCCCCCOc1ccccc1CC(=O)OCC[N+]1(C)CCCCC1`, the GI50 is 2.07 µM and the TGI is 4.93 µM.

`Nc1ncnc2c1ncn2C=C=CCO` registered a TGI of more than 100 µM.

`CN1CCc2[nH]c3ccccc3c2C1` registered a TGI of more than 100 µM.

`C[C@]12C=CC(=O)C=C1CC[C@@H]1[C@@H]2CC[C@]2(C)OC(=O)CC[C@@H]12`: the TGI is more than 500 µM.

As for `Nc1ncnc2nc[nH]c12`, the TGI is more than 237 µM.

The compound `CN1CCOC(c2ccc(Cl)cc2)O1` (stereo unspecified) had a TGI of more than 100 µM.

Consider `CCOc1ccc(NC(=O)C(=O)CC(=O)c2sc(NNC(C)=O)nc2C)cc1`, for which the TGI is more than 100 µM.

The test system of a further assay is UO-31 renal. Nature of the assay: NCI tumour cell line growth inhibition, 48 h.
Take `O=C(O)c1cc([N+](=O)[O-])cc2c(=O)c3cnccc3[nH]c12`: the TGI is more than 100 µM.

Turning to `CCCCCCCCCCCCCCCCCCOc1ccccc1CC(=O)OCC[N+]1(C)CCCCC1`, the GI50 was 4.14 µM and the TGI was 19.7 µM.

Compound `Nc1ncnc2c1ncn2C=C=CCO` had a TGI of more than 100 µM.

`CN1CCc2[nH]c3ccccc3c2C1`: the TGI was more than 100 µM.

In turn, `C[C@]12C=CC(=O)C=C1CC[C@@H]1[C@@H]2CC[C@]2(C)OC(=O)CC[C@@H]12` showed a TGI of more than 500 µM.

As to `Nc1ncnc2nc[nH]c12`, the TGI was more than 250 µM.

`CN1CCOC(c2ccc(Cl)cc2)O1` (stereo unspecified) gave a TGI of more than 100 µM.

In turn, `CCOc1ccc(NC(=O)C(=O)CC(=O)c2sc(NNC(C)=O)nc2C)cc1` displayed a TGI of more than 100 µM.
